Measurements from patent publication US20130072519A1, “2-PHENYL BENZOYLAMIDES” (priority 2010, published 2013).

Legend:
[1] = Human liver microsomal stability; format: in vitro ADME; conditions: Human Liver Microsomes 0.76 mg/mL, 1 μM compound, 37° C.; for Compound remaining (%) at 4 min: pH 7.4, 4 min; for Compound remaining (%) at 30 min: pH 7.4, 30 min
Method: (§1) Pooled human liver or intestinal microsomes (final concentration 0.76 mg/mL) were diluted in 100 mM potassium phosphate buffer (pH 7.4) and preincubated at 37° C. The compounds of interest were dissolved in DMSO (30 mM), diluted to 100 μM in acetonitrile or methanol, and added to the microsomal incubations to achieve a final concentration of 1 μM with 1% or less final organic solvent. The mixtures were incubated for 30 min at 37° C. Aliquots were removed at predetermined times and quenched with an excess acetonitrile, containing an internal standard, on ice. Following centrifugation, the analytes were quantified by liquid chromatography-tandem mass spectrometry (LC-MS/MS). The compound remaining (%) was calculated from the analyte area ratio at the predetermined time/initial analyte area ratio at time 0×100.

[2] = Human intestinal microsomal stability; format: in vitro ADME; conditions: Human Intestinal Microsomes 0.76 mg/mL, 1 μM compound, 37° C.; for Compound remaining (%) at 4 min: pH 7.4, 4 min; for Compound remaining (%) at 30 min: pH 7.4, 30 min
Method: as §1

[3] = system: Apolipoprotein B Secretion from HepG2 Cells; assay: Inhibition of Apolipoprotein B secretion from HepG2 cells (ELISA); format: cell-based, human; conditions: Homo sapiens, HepG2, HepG2 cells, 22-24 hours incubation, ApoB ELISA; Low/High IC50 columns give the 95% confidence interval

| SMILES | Compound remaining (%) at 4 min [1] [%] | Compound remaining (%) at 30 min [1] [%] | Compound remaining (%) at 4 min [2] [%] | Compound remaining (%) at 30 min [2] [%] | IC50 [3] [nM] |
| --- | --- | --- | --- | --- | --- |
| CCOC(=O)[C@]1(COC(=O)Cc2ccc(NC(=O)c3cccc(OC)c3-c3ccc(C(F)(F)F)cc3)c(C(=O)N(C)C)c2)c2ccccc2C(=O)N1C [Example 71, ethyl (1R)-1-({2-[3-(dimethylcarbamoyl)-4-({[6-methoxy-4′-(trifluoromethyl)biphenyl-2-yl]carbonyl}amino)phenyl]acetoxy}methyl)-2-methyl-3-oxoisoindoline-1-carboxylate] | 45 | 5.3 | 125 | 94 | 0.176 |
| CCOC(=O)[C@]1(COC(=O)Cc2ccc(NC(=O)c3ccc(C)cc3-c3ccc(OC(C)C)cc3)c(C(=O)N(C)C)c2)c2ccccc2C(=O)N1C [Example 72, ethyl (1R)-1-({2-[3-(dimethylcarbamoyl)-4-{[(4′-isopropoxy-5-methylbiphenyl-2-yl)carbonyl]amino}phenyl]acetoxy}methyl)-2-methyl-3-oxoisoindoline-1-carboxylate] | 71 | 9.2 | 125 | 100 | 0.119 |
